# Measured values reported in ChEMBL document CHEMBL1201862, “PubChem BioAssay data set” (2004).
# Calls of active or inactive are those of the source.
# Tests used:
# [1] = biological target: T1, Tyrosine-protein phosphatase non-receptor type 7 (Homo sapiens, UniProt P35236); test: HePTP tyrosine phosphatase activity blockers – biochemical, absorbance, leukemia target, primary screen (AID 521); format: functional
# T1 sequence (P35236 whole entry): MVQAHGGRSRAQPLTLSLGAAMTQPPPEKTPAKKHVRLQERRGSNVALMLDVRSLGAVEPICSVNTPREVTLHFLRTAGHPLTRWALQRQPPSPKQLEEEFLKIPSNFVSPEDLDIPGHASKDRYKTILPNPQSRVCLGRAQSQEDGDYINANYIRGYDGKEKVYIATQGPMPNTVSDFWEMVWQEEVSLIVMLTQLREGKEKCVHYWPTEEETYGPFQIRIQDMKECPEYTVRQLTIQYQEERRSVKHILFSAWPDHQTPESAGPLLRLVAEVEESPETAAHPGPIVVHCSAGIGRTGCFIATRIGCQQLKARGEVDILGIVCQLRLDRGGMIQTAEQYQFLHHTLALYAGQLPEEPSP
# [2] = HIV-1 Vif–A3G interaction blockers – biochemical, TR-FRET, GST-Vif 1-94, biotin-A3G peptide, dose response retest, primary screen (AID 1117319); format: functional;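 further: TR-FRET signal of purified GST-Vif binding a biotinylated A3G peptide; inhibitors lower the FRET signal by blocking Vif and A3G binding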
# [3] = biological target: NACHT, LRR and PYD domains-containing protein 1 (Homo sapiens, UniProt Q9C000); test: NALP1 inhibitors in yeast, dose response, luminescent (AID 488860); format: functional
# Saccharomyces cerevisiae = test: S. cerevisiae Caspase-1/ASC signal blockers IC50, NALP1 inhibitor project selectivity test (AID 488863); format: functional, organism-based
# [4] = IC50 of insulin release inhibition, rat insulinoma INS-1E line, 5 mM glucose, cell-based (AID 1117331); format: functional
# [5] = glucagon-like peptide-1 release potency in STC-1, concentration-response, half-maximal inhibitory concentration in the STC-1 line (AID 1117345); format: functional, cell-based
# [6] = Potency on glucagon-like peptide 1 release, dose-response in NCI-H716 cell line, half maximal inhibitory concentration (AID 1117344); format: functional, cell-based
# Vero [7] = test: mammalian cell viability reduction – secondary assay, cytotoxicity control for West Nile virus antiviral project, dose response (AID 1650); format: functional; conditions: Chlorocebus sabaeus
# Vero [8] = test: inhibition of WNV-induced cytopathic effect – cell-based, CPE readout (AID 1621); format: functional; conditions: Chlorocebus sabaeus
# Danio rerio = test: In Vivo Angiogenesis Dose-Response Confirmation. [Related pubchem assays: 732 (Assay preceding this confirmatory assay.)]; format: functional, organism-based
# [9] = biological target: Ubiquitin carboxyl-terminal hydrolase BAP1 (Homo sapiens, UniProt Q92560); test: inhibition of BAP1 ubiquitin hydrolase activity – biochemical, dose response (AID 714); format: functional
# [10] = biological target: Voltage-dependent T-type calcium channel subunit alpha-1H (Homo sapiens, UniProt O95180); format: functional;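 further: channel activity triggered by adding a high calcium stimulation buffer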
# [11] = Dd2 parasite growth inhibition in erythrocytes – SYBR Green, dry powder samples, set 9, dose response (AID 1159568); format: functional, cell-based
# [12] = viability loss in HeLa cells – cytotoxicity control for MgcRacGAP inhibitor project, dose response (AID 624300); format: functional
# [13] = viability loss in THP-1 monocytes – THP-1 cells, cytotoxicity control for Vif-APOBEC3G degradation inhibitor project, dose response (AID 1117359); format: functional; conditions: THP-1
# [14] = biological target: Glutathione-S-transferase (Schistosoma japonicum, UniProt Q26513); test: GST-antibody interaction or FRET quenching – biochemical, TR-FRET, artefact control for Vif-APOBEC3G degradation inhibitor project, dose response (AID 1117362); format: functional
# CHO = CHO cell viability loss, potency – luminescence, cytotoxicity control for TLR9-MyD88 binding inhibitor project, dose response (AID 588339); format: functional, cell-based, hamster; conditions: Cricetulus griseus;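 further: CHO cells stably coexpressing TLR9 and MyD88 fusions from primary screen; compound exposure lasted 48 hours before viability readout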
# Nonstructural protein 1 = Nonstructural protein 1 (Influenza A virus, UniProt Q194T2); format: functional, Influenza A virus (A/California/07/2009(H1N1))
# [15] = biological target: T2, Rac GTPase-activating protein 1 (Homo sapiens, UniProt Q9H0H5); test: blockers of MgcRacGAP-driven Rac1 GTP hydrolysis – biochemical, ADP Hunter fluorescence, primary and confirmatory, confirmation (AID 624330); format: functional
# T2 sequence (Q9H0H5 whole entry): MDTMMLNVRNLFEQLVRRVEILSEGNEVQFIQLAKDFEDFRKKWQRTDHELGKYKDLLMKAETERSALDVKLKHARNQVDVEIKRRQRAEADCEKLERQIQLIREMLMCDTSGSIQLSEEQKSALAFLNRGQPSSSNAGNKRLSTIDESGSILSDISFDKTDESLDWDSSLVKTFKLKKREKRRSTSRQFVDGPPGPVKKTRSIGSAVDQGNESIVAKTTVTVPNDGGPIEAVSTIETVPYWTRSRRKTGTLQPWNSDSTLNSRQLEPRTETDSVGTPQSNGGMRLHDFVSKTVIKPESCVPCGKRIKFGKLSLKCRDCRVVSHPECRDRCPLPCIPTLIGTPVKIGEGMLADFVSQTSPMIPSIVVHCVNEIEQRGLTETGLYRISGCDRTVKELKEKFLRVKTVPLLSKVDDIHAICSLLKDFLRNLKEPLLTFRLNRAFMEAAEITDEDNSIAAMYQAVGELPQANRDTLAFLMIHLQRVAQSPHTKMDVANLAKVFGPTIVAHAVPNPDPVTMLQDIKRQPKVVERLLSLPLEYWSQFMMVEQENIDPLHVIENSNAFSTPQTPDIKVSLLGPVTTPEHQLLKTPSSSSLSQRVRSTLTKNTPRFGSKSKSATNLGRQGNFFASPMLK
# [16] = biological target: Glucose-6-phosphate 1-dehydrogenase (Homo sapiens, UniProt P11413); test: inhibition of Homo sapiens G6PD, dose series – biochemical, fluorescence, selectivity assay for P. falciparum G6PD inhibitor project, dose response (AID 504792); format: functional
# [17] = biological target: Heat shock protein HSP 90-alpha (Homo sapiens, UniProt P07900); format: functional, organism-based
# Genome polyprotein [18] = biological target: Genome polyprotein (dengue virus type 2, UniProt P29990); test: flavivirus cap methylation enzyme inhibition – biochemical, confirmation dose response, primary screen (AID 588689); format: functional
# Vero [19] = test: viability of Vero cells under compound – cytotoxicity control for flavivirus capping enzyme inhibitors (AID 588742); format: functional; conditions: Chlorocebus sabaeus
# Beta Lactamase = Beta Lactamase (Pseudomonas aeruginosa, UniProt Q932Y6); test: BLA reporter interference, concentration series – BLA reporter cells, FRET fluorescence, artefact control for TLR9-MyD88 binding inhibitor project, dose response (AID 588341); format: cell-based;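 further: cell based assay in CHO-K1 cells stably expressing beta-lactamase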
# [20] = biological target: Voltage-gated inwardly rectifying potassium channel KCNH2 (Homo sapiens, UniProt Q12809); test: concentration-dependent hERG rescue from blockers – cell-based, thallium flux, dose response (AID 2121); format: ADME
# [21] = biological target: RNA-editing ligase 1, mitochondrial (Trypanosoma brucei brucei, UniProt P86926); test: inhibition of trypanosome RNA editing ligase – biochemical, fluorescence, Trypanosoma brucei, dose response (AID 1117295); format: functional
# Estrogen receptor beta [22] = biological target: T3, Estrogen receptor beta (Homo sapiens, UniProt Q92731);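 further: recombinant ER-beta bound to coactivator SRC1 peptide in presence of estradiol agonist; inhibitors block coactivator peptide binding and lower the FRET signal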
# Genome polyprotein [23] = biological target: Genome polyprotein (Hepatitis C virus, UniProt Q2Q167); test: disruption of hepatitis C core self-association – biochemical, TR-FRET, dose response (AID 2159); set-up: species or system Hepacivirus hominis;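 further: blocks dimerization of HCV core protein measured by TR-FRET between tagged core106 pairs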
# Estrogen receptor = biological target: T4, Estrogen receptor (Homo sapiens, UniProt P03372);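 further: potency for inhibiting coactivator peptide recruitment to the receptor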
# T4 sequence (P03372 whole entry): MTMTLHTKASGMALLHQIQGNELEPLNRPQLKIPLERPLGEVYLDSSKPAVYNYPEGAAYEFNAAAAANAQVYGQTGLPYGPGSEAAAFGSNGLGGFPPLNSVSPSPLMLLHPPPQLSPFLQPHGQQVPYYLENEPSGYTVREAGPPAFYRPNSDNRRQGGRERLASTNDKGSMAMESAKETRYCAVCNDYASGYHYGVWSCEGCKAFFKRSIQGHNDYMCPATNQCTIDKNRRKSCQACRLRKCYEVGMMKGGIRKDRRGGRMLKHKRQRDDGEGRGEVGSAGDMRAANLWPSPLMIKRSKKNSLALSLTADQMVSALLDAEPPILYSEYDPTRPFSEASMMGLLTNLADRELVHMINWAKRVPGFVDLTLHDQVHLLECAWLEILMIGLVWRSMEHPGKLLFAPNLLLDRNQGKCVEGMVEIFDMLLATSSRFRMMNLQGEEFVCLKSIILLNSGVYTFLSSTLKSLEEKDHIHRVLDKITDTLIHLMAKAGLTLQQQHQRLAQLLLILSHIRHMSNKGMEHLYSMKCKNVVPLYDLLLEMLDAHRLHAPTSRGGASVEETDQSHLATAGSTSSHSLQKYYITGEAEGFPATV
# [24] = biological target: T5, Dual specificity protein phosphatase 6 (Rattus norvegicus, UniProt Q64346); test: inhibition of rat DUSP6 enzyme activity – biochemical, in vitro, primary screen (AID 425)
# T5 sequence (Q64346 whole entry): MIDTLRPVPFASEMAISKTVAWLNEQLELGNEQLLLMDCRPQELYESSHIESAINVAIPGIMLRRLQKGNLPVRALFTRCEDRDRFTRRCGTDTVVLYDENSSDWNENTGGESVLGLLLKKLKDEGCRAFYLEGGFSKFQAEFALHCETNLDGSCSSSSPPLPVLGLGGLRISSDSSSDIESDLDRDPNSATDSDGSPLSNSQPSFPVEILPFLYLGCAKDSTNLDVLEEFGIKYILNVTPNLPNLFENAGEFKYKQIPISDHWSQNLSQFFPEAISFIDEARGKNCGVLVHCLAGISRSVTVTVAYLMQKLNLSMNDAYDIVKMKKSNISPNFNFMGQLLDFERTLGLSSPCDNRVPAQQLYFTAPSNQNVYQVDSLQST
# [25] = biological target: Eukaryotic translation initiation factor 4E (Mus musculus, UniProt P63073); test: blockers of eIF4G binding by eIF4E – biochemical, TR-FRET, dose response (AID 855); format: functional;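 further: potency for disrupting eIF4E binding to eIF4GI seen as loss of FRET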
# Estrogen receptor beta [26] = biological target: T3, Estrogen receptor beta; test: blockers of SRC-3 recruitment to ERβ – biochemical, ELISA, streptavidin-HRP readout, orthogonal assay, confirmation (AID 1060)
# [27] = biological target: T6, Carboxy-terminal domain RNA polymerase II polypeptide A small phosphatase 1 (Homo sapiens, UniProt Q9GZU7); test: CTDSP1 inhibitors, concentration-response, biochemical, absorbance readout, ultra-high-throughput screen actives (AID 540297); format: functional
# T6 sequence (Q9GZU7 whole entry): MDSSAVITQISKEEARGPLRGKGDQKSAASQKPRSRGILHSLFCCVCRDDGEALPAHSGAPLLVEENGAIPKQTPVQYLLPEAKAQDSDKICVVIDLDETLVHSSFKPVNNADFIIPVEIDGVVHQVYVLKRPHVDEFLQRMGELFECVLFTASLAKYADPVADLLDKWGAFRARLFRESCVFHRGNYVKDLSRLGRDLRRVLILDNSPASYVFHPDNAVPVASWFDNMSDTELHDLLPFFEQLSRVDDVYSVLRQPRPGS
# [28] = viability loss in Vero cells – cytotoxicity control for Vif-APOBEC3G degradation inhibitor project, dose response (AID 1117358); format: functional; conditions: Vero
# [29] = biological target: G-protein coupled receptor 183 (Homo sapiens, UniProt P32249); test: SAR confirmation of small molecule antagonists of the EBI2 receptor via a luminescent beta-arrestin assa.; format: functional
# Chain of G-protein coupled receptor 183 (P32249 whole entry): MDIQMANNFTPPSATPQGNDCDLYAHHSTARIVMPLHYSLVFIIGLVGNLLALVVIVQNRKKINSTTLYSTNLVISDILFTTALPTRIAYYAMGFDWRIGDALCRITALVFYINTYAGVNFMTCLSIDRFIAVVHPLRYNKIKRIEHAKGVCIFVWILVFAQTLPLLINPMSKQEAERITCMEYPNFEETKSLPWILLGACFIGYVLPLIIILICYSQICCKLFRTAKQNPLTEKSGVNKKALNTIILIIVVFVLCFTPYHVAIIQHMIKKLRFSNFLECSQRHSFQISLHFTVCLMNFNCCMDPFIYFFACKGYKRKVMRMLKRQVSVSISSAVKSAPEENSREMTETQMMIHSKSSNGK
# T3 sequence (Q92731 whole entry): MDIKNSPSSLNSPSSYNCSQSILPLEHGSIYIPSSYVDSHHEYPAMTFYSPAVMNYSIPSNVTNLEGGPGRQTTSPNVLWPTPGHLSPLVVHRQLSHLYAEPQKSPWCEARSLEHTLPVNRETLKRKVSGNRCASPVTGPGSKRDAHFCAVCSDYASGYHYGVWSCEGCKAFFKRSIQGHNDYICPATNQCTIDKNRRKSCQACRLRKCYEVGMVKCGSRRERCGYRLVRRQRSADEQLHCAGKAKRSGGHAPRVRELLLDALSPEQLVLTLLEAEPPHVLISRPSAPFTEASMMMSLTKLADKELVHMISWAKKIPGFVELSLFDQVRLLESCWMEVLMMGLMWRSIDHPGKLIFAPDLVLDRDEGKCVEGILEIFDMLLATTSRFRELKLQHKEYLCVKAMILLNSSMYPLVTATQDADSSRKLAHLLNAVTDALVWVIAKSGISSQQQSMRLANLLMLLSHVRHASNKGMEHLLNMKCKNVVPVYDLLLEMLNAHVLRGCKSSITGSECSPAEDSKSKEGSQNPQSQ
# Chain of Beta Lactamase (Q932Y6 whole entry): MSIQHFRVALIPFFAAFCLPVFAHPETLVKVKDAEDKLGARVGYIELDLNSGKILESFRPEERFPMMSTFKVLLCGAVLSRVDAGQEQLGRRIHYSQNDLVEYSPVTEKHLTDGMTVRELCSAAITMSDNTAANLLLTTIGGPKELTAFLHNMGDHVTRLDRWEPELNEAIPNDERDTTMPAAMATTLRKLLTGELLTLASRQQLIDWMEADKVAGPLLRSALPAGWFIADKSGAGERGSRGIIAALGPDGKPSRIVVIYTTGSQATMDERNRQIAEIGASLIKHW
# Chain of RNA-editing ligase 1, mitochondrial (P86926 whole entry): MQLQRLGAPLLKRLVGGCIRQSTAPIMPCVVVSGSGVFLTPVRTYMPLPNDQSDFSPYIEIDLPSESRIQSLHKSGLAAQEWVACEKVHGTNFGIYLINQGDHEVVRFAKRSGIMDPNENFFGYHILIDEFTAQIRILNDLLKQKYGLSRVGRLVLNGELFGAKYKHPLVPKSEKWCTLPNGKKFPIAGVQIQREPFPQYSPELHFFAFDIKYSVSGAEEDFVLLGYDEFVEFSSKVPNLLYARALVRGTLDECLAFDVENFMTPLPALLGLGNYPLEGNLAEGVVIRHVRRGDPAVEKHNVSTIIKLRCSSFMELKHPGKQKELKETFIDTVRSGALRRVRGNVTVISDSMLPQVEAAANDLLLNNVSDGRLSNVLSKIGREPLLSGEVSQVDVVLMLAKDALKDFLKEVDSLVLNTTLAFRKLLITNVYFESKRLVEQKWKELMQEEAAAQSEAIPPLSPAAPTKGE
# Chain of Voltage-gated inwardly rectifying potassium channel KCNH2 (Q12809 whole entry): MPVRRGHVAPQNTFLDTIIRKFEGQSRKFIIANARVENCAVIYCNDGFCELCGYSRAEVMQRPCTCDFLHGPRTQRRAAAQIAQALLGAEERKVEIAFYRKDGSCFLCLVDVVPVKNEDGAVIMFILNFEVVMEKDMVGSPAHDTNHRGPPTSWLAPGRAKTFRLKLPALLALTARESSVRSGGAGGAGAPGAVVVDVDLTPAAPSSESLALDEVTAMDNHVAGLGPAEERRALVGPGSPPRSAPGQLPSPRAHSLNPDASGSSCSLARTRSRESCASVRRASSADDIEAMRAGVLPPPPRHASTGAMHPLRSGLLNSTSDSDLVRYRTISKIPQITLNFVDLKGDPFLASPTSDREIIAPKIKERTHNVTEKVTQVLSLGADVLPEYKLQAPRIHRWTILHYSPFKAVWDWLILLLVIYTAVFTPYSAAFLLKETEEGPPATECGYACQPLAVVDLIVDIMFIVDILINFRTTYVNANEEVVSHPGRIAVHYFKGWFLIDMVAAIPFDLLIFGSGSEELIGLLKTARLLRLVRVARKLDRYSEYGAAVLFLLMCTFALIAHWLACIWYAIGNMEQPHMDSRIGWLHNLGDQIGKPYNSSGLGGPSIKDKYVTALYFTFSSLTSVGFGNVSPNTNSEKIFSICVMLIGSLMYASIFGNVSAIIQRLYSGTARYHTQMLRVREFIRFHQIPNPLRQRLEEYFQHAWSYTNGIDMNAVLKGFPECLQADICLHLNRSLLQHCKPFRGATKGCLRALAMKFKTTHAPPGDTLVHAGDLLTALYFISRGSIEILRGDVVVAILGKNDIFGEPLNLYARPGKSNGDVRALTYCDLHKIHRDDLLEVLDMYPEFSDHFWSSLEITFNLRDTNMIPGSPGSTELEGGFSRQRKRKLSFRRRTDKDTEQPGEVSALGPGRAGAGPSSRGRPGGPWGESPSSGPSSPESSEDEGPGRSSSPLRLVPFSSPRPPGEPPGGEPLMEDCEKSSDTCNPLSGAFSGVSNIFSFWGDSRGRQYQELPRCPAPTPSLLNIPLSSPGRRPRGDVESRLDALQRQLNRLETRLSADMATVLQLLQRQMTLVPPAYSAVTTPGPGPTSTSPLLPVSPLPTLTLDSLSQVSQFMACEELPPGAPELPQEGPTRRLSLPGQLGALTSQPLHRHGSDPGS
# Chain of Nonstructural protein 1 (Q194T2 whole entry): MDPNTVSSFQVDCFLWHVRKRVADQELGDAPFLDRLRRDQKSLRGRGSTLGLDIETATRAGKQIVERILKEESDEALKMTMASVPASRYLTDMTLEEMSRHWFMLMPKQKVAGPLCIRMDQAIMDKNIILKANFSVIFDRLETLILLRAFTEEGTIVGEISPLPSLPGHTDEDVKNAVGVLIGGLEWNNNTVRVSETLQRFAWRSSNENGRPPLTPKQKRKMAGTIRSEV
# Chain of Eukaryotic translation initiation factor 4E (P63073 whole entry): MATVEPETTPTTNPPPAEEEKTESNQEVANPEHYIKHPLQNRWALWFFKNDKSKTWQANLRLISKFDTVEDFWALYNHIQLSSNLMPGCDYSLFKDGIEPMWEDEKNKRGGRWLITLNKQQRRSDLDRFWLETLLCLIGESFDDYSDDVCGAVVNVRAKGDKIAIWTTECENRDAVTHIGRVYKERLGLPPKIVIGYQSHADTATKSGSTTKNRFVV
# Chain of Ubiquitin carboxyl-terminal hydrolase BAP1 (Q92560 whole entry): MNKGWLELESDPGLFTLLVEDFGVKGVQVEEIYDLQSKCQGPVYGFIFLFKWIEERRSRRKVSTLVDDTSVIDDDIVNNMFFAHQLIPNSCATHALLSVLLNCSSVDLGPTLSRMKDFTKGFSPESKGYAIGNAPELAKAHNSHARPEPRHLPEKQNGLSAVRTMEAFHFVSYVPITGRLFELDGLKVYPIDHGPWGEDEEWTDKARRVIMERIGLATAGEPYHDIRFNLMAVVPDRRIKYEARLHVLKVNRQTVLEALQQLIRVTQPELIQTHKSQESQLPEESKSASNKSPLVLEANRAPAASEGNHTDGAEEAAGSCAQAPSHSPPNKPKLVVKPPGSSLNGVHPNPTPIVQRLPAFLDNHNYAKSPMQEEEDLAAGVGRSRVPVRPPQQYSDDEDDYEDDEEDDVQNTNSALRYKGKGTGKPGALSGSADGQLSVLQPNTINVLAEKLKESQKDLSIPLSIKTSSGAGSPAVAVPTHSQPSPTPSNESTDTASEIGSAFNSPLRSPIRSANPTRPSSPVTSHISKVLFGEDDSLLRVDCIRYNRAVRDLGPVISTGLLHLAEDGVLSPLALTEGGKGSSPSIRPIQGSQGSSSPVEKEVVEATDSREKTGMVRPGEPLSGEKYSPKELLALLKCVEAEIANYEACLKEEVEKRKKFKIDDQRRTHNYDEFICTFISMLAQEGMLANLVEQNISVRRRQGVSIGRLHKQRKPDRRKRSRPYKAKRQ
# Chain of Glutathione-S-transferase (Q26513 whole entry, the tested form may be a part): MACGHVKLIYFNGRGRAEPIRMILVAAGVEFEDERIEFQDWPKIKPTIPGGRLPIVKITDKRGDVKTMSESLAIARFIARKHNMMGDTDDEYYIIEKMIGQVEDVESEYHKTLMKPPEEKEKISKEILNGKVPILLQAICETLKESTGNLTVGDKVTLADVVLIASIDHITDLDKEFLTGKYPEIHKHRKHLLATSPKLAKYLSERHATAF
# Chain of Glucose-6-phosphate 1-dehydrogenase (P11413 whole entry): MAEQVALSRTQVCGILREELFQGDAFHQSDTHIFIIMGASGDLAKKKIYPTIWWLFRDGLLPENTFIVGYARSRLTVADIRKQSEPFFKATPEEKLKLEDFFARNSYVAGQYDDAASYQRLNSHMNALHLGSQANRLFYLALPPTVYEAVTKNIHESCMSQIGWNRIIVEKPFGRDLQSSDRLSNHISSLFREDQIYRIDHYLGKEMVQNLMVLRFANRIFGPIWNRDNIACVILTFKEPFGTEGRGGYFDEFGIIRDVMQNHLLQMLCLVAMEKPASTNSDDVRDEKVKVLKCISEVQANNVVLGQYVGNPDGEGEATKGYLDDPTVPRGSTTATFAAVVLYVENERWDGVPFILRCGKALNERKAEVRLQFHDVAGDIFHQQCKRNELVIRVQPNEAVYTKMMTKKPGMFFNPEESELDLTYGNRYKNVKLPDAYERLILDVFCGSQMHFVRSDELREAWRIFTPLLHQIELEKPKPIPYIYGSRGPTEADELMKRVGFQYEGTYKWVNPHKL
# Chain of Genome polyprotein (Hepatitis C virus, UniProt Q2Q167) (Q2Q167 whole entry): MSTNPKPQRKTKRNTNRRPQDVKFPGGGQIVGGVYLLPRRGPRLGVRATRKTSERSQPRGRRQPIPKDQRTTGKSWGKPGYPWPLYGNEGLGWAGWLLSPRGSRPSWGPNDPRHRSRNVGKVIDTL
smiles,measurement,setting,value
Cc1nc2c(o1)CCc1ccccc1C2O (stereo not given),IC50,[1],> 100 µM (not active)
Cc1sc(-c2ccncc2)nc1OC(=O)c1ccccc1,IC50,[2],> 100 µM (active)
same,IC50,[3],23.1 µM (active)
same,IC50,Saccharomyces cerevisiae,56.9 µM (active)
O=C(O)C1CCC1,IC50,[4],> 33.3 µM (inactive)
same,IC50,[5],> 40 µM (inactive)
same,IC50,[6],> 40 µM (inactive)
COc1ccc(C2c3ccc4ccccc4c3Oc3ncn(CCCO)c(=N)c32)cc1OC (stereo not given),CC50,Vero [7],19.7 µM (active)
same,IC50,Vero [8],21.5 µM (active)
O=C1Nc2c(Cl)cc(Cl)cc2/C1=C1/Nc2ccccc2C1=O,IC50,Danio rerio,4.24 µM (active)
CC(=O)N1CCN(c2ccccc2NC(=O)COc2cc(C)ccc2C(C)C)CC1,IC50,[9],36.7 µM (not active)
same,EC50,[10],3.67 µM (active)
CC(C)CC#Cc1ccc([C@@H]2[C@H]3CN(C(=O)Nc4ccccc4)CCCCN3[C@H]2CO)cc1,AC50,[11],2.67 µM (active)
CCN(CC)c1ccc(C(=C2C=CC(=[N+](CC)CC)C=C2)c2ccccc2)cc1,CC50,[12],0.823 µM (active)
same,CC50,[13],0.1 µM (active)
same,IC50,[14],25.3 µM (active)
same,IC50,CHO,0.181 µM (active)
same,IC50,Nonstructural protein 1,10.4 µM (active)
same,IC50,[15],9.8 µM (active)
same,IC50,[16],> 80 µM (inactive)
same,AC50,[17],0.754 µM (active)
same,IC50,Genome polyprotein [18],24.9 µM (active)
same,CC50,Vero [19],0.27 µM (active)
same,IC50,Beta Lactamase,4.75 µM (active)
CCc1ccc2nc(NC(=O)c3cc(C)on3)sc2c1,EC50,[20],11.6 µM (active)
COC(=O)C1=C(C)N(Cc2cccc(C(F)(F)F)c2)C(NCc2ccc(C(F)(F)F)cc2)=NC1c1ccccc1C(F)(F)F (stereo not given),IC50,[21],> 96.6 µM (inactive)
O=C1Nc2ccccc2SC(c2ccccc2)C1O (stereo not given),IC50,Estrogen receptor beta [22],< 1.56 µM (active)
same,IC50,Genome polyprotein [23],> 49.8 µM (not active)
same,IC50,Estrogen receptor,3.02 µM (active)
same,IC50,[24],> 10 µM (not active)
same,IC50,[25],35.4 µM (inactive)
same,IC50,Estrogen receptor beta [26],0.161 µM (not active)
same,IC50,[27],5.33 µM (active)
N=c1sccn1CC(=O)Nc1ccc2c(c1)CCC2,CC50,[28],> 40 µM (active)
O=C(/C=C/c1ccc(Br)cc1)N1CCN(Cc2ccc(Cl)c(Cl)c2)CC1,IC50,[29],0.00172 µM (active)
